In patent US20230213527A1, “COMPOSITIONS AND METHODS FOR POLYPEPTIDE ANALYSIS” (Quantum-Si Incorporated, priority 2021, published 2023):
Values joined by “and” are separate entries in the source; they are usually repeats but may differ in a detail not shown here. Equal values may be shown once. Read-outs that look alike come from different tables or passages of the source. Square brackets hold non-standard residues; d marks the D form. Ends that are not written are not given here. Cit = NC(=O)NCCC[C@H](N)C(=O)O

Legend:
PS1223 = assay: Dynamic single-molecule sequencing, recognition by PS1223; type: binding; details: recognizer PS1223, recognition of the N-terminal amino acid
Chain of PS1223 (as listed by the source): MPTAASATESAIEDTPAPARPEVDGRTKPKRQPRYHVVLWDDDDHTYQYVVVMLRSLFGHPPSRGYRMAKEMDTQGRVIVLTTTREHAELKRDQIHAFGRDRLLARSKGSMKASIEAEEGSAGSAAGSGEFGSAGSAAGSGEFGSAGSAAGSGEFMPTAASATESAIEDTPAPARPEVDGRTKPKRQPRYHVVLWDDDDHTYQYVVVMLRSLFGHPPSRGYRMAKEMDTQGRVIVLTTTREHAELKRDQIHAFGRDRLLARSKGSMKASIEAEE
Experimental: Sequencing reactions using the recognizers PS610 (FYW), PS1220 (R), and PS1223 (LIV) were performed separately for the QP706 and QP1073 peptide fragments. Each recognizer was labeled with a unique dye and/or unique number of dyes. A scatter plot of bin ratio v. pulse duration is shown for the QP706 peptide fragment in FIG. 18A and for the QP1073 peptide fragment in FIG. 18B. In the plot of FIG. 18A, three clusters corresponding to FLE, LEQ, and RFL segments are visible. […] In the plot of FIG. 18B, two clusters corresponding to FLE and LEQ segments are visible, but there is no cluster corresponding to RFL.
In this example, sequencing reactions were conducted for 4 pairs of unmodified and citrullinated peptides: QP1028 & QP1029, QP1030 & QP1031, QP1032 & QP1033, and QP707 & QP789. […] For the QP1028 & QP1029 and QP1030 & QP1031 pairs, sequencing reactions were conducted using the PS610 (FYW) recognizer. For the QP1032 & QP1033 and QP707 & QP789 pairs, sequencing reactions were conducted using the PS1223 (LIV) recognizer.

amino acid recognizers = assay: Sequencing of β-amyloid wild type and variant peptides, average pulse width; type: binding; details: for Average Pulse Width, tripeptide LVX: when sequencing L
Description: Aspects of the technology described herein may be used for protein preparation, peptide library preparation, peptide sequencing and peptide profiling of synthetic samples of ß-amyloid. In this example, the wild type (LVFFAE (SEQ ID NO: 827)) and variants (17LVFFAK22 (SEQ ID NO: 828), 17LVFFGK22 (SEQ ID NO: 829), 17LVFFAG22 (SEQ ID NO: 830), and 17LVPFAE22 (SEQ ID NO: 831)) of β-amyloid were digested and labeled for further analysis. Alternatively, β-amyloid may be purified from common sources, such as cerebrospinal fluid (CSF), for downstream analysis.
A chip including aspects of the technology described herein was used for the downstream sequencing of the sample material. The chip contained millions of wells, each of which acted as an independent sequencing machine. Once the sample was loaded, cloud technology was used to set up the sequencing run and collect all the data for visualization. Once collected in the cloud, a set of proprietary algorithms, which can identify amino acids based on the specialized optical pulse patterns of each binding event, determined the sequence of the peptide and mapped that sequence back to a specific protein or protein variant.
Here, the protein sequencing technology and analysis pipeline was successfully used to distinguish a variety of clinically significant ß-amyloid point mutations. The sequencing traces containing pulse patterns of the variants, 17LVFFAK22 (SEQ ID NO: 828), 17LVFFGK22 (SEQ ID NO: 829), 17LVFFAG22 (SEQ ID NO: 830), and 17LVPFAE22 (SEQ ID NO: 831), were compared to the wild type, 17LVFFAE22 (SEQ ID NO: 827). Software automatically identified pulses containing the same intensity, lifetime, and kinetics, which determined a recognition segment for a specific amino acid. Each recognition segment was color coded based on the N-terminal amino acid, and the collection of recognition segments provided a characteristic signature of the peptide.
Time domain sequencing functionality can observe sequence changes indirectly during peptide profiling. The specific PTMs and folding of each variant cause them to display distinctly different patterns, which can then be inferred via alterations in pulse width. For example, a point mutation in a sequence—at the N-terminal end, or at the penultimate and antepenultimate positions, of the peptide—can generate an altered pulse pattern, compared to another sequence.

PS621 = biological target: T1, PS621 (Kluyveromyces lactis, UniProt O60014, E174T/N105S/N176F/R116K/S153T/V146T); assay: Dynamic single-molecule sequencing, recognition by PS621; type: binding; details: unmodified arginine peptide, average of 10 sequencing reactions
T1 construct: PS621; […]
T1 sequence (O60014 other isoform, or with tags, fused parts or gaps N105S/R116K/V146T/S153T/E174T/N176F): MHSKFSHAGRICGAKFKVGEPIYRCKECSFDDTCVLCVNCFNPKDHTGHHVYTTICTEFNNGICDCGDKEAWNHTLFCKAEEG
Description: PTM detection involved isolating peptides and subjecting them to a real-time single-molecule protein sequencing reaction. Proteins were first digested into peptide fragments and conjugated C-terminally to macromolecular linkers. The peptide complexes were immobilized at the bottom of nanoscale wells on a semiconductor chip, resulting in single peptide molecules with exposed N-termini ready for sequencing. During the sequencing reaction, the surface-immobilized peptides were exposed to a solution containing dye-labeled NAA recognizers that bound on and off to their cognate NAAs with characteristic kinetic properties. Aminopeptidases in solution sequentially removed individual NAAs to expose subsequent amino acids for recognition. Fluorescence lifetime, intensity, and kinetic data were collected in real time and analyzed to determine amino acid sequence and PTM content.
The trace-level output included distinct pulsing regions called recognition segments (RSs); each RS corresponded to a period of time between aminopeptidase cleavage events during which an NAA recognizer bound on and off to its exposed target NAA. Chemical modifications to a target NAA or to a nearby downstream amino acid can modulate recognizer affinity, resulting in a characteristic change in the average pulse duration (PD) during an RS relative to an unmodified peptide. These modifications can also influence the rate of aminopeptidase cleavage of an NAA, resulting in a characteristic change in average duration of the corresponding RS.
Synthetic peptides corresponding to residues 69 to 76 of P38MAPKa were generated in three versions containing either arginine, ADMA, or SDMA at position 2: YRELRLLK (SEQ ID NO: 834), YRADMAELRLLK (SEQ ID NO: 835), and YRSDMAELRLLK (SEQ ID NO: 836). Each peptide was sequenced using three recognizers—PS610 (F, Y, W), PS961 (L, I, V), and PS621 (R)—and data were analyzed to identify RSs, determine the mean PD of each RS, and characterize the kinetic signature of each peptide.
In this example, sequencing reactions were performed using PS621 (R), PS610 (FYW), and PS961 (LIV) recognizers for 9 pairs of peptides. Each pair comprised one peptide comprising an unmodified arginine residue followed by a non-arginine amino acid (referred to as an R-X peptide) and one peptide having an identical sequence except that the unmodified arginine was modified to be ADMA (referred to as an ADMA-X peptide).

PS961 = assay: Dynamic single-molecule sequencing, recognition by PS961; type: binding, Planctomycetes; details: arginine or citrulline at position 2
Chain of PS961 (as listed by the source): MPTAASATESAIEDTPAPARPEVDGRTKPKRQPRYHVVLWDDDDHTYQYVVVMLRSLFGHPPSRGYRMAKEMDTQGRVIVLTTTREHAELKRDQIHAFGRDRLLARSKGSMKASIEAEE
Experimental: The semiconductor chip was placed in the sequencing device and a chip check was performed to test electronic circuit function and to optimize laser coupling alignment. The chip was then removed from the device socket and the chip was washed twice with 50 μL of 70% isopropanol, followed by four washes with 30 μL of wash buffer (50 mM MOPS pH 8.0, 60 mM potassium acetate, 50 mM glucose, 20 mM magnesium acetate, and surfactant mix) through a flow cell attached to the chip. A second chip check was then performed. The laser was then blocked via an integrated software-controlled shutter, peptide complex was added to a final concentration of 1-10 nM and mixed thoroughly, and the chip was incubated for 15 min. The chip was then washed six times with wash buffer, followed by addition of an imaging solution (wash buffer with 5 mM Trolox and an oxygen scavenging system). The laser was unblocked and the occupancy percentage (target 10-30%, Poisson distributed) was recorded by acquiring a photobleaching signal from a fluorophore attached to the peptide complex during 5 min of laser illumination. For NAA recognition-only assays, after peptide loading, labeled recognizer was added to a final concentration of 50 nM PS610, 100 nM PS691, or 250 nM PS961 (as indicated according to the experiment), and data was recorded for 10 hours. For dynamic sequencing assays, after peptide loading, a mixture of labeled recognizers was added to obtain final concentrations of 50 nM PS610, 100 nM PS691, and 250 nM PS961. Data was recorded for 15 min. The laser was then blocked briefly and aminopeptidases were added to the sequencing reaction via the flow cell and mixed thoroughly (final concentration 2-8 μM PhTET2 and/or 20-80 μM PhTET3, as indicated according to the experiment). The laser was then unblocked, and data was recorded for 10 hours. For all runs, 30 μL of mineral oil was added to fluid reservoirs at each port of the flow cell to prevent evaporation during the run.
The measured signal on-chip comprises various noise components, the most dominant one being due to fluorescent emissions from diffusing recognizers in the reaction chamber. The pulse caller algorithm for a given reaction chamber starts by estimating the statistical properties of this background noise component. Once an estimate within certain error bounds has been established, the algorithm works in an online fashion observing new frames of data as they are generated. At each point in time, the algorithm maintains state indicating whether the signal is due to the background component only or a pulse from a recognizer-NAA interaction is being observed. The state transition from background to pulse is triggered using an edge detection test where the shift in signal is expected to be significant with respect to the background component's statistical distribution. The state transition from pulse to background is triggered when a small window of the most recent frames of the signal appears to conform to the background component's distribution again. The algorithm maintains an updated model of the background component as new background frames are observed. This provides robustness against drift in the signal intensity together with a feedback control loop that maintains a stable optical coupling of the laser into the chip based on any such detected drift. As detected pulses can be due to true recognizer-to-dipeptide interaction events as well as other occasional transient noise spikes, a downstream filter layer is employed to test the significance of pulse events based on their duration, intensity, and noise patterns within the context of the full timeline of the run and the entire dataset of reaction chambers.
Initial regions are determined by performing a sliding window calculation of pulse rate along the time dimension of a series of pulses. Regions with a mean pulse rate >1 pulse/min are then subdivided according to a greedy bisection approach.

PhTET2 and PhTET3 = assay: Aminopeptidase cleavage of N-terminal amino acids during dynamic sequencing (RS/NRS durations); type: biochemical, P. horikoshii
Experimental: To evaluate the kinetic principles of the dynamic sequencing method when applied to diverse sequences, the synthetic peptide DQQRLIFAG (SEQ ID NO: 794), corresponding to a segment of human ubiquitin, was characterized (FIGS. 3A-3D). Sequencing reactions were performed using a combination of three differentially-labeled recognizers—PS610, PS961, and PS691—and two aminopeptidases—PhTET2 and PhTET3 (Materials and Methods). The example trace in FIG. 3A starts with an NRS that corresponds to the time interval during which residues in the initial DQQ motif are present at the N-terminus. The first RS starts at 120 min, upon exposure of N-terminal arginine to recognition by PS691. Subsequent cleavage events sequentially expose N-terminal leucine, isoleucine, and phenylalanine to their corresponding recognizers, with fast transitions (average <10 s) from one RS to the next. The transition from leucine to isoleucine recognition by PS961 is readily identified as a sharp change in average PD. This overall pattern is replicated across many instances of sequencing of the same peptide, with similar PD statistics across traces, as each peptide molecule follows the same reaction pathway over the course of the sequencing run (FIGS. 3B-3C).
The distribution of RS durations across an ensemble of replicate traces defines the rate of cleavage of each recognizable NAA. […] The distribution of NRS durations reports the cleavage rate of a run of one or more non-recognized NAAs. The average NRS duration for the initial DQQ motif was 153 min (FIG. 3D). Average cleavage rates are a key parameter and are controlled by the aminopeptidase concentration in the assay (FIGS. 8D-8E). Given the exponential behavior, average RS durations of 10 to 40 min were targeted to provide sufficient time for pulsing data collection, avoid missed RSs due to rapid cleavage, and minimize excessively long RS durations. It was found helpful to visualize the sequencing profiles of peptides as kinetic signature plots—simplified trace-like representations of the time course of complete peptide sequencing containing the median PD for each RS, and the average duration of each RS and NRS (FIG. 3E). These highly characteristic features provide a wealth of sequence-dependent information for mapping traces from peptides to their proteins of origin.
A second chip check was then performed. […] Data was recorded for 15 min.

[1] = RS duration across replicate traces

ICitLAFAYPDDDK (I[Cit]LAFAYPDDDK-NH2; also: C-terminal azidolysine (general statement for all synthetic peptides)) [QP1033]
Pulse Width (PS1223): 0.84 s

LVFFAG [Peptide E22G, β-amyloid variant]
Average Pulse Width, tripeptide FXX (amino acid recognizers): 2.99 (FAG) seconds

IRLAFAYPDDDK [QP1032]
Pulse Width (PS1223): 0.58 s

LVFFAE [WT, β-amyloid wild type]
Average Pulse Width, tripeptide FXX (amino acid recognizers): 2.43 (FAE) seconds | Average Pulse Width, tripeptide FXX (amino acid recognizers; listed as wild type): 2.43 s | Average Pulse Width, tripeptide LVX (amino acid recognizers): 3.26 (LVF) seconds | Average Pulse Width, tripeptide LVX (amino acid recognizers; listed as wild type): 3.26 s

LVFFAK [Peptide E22K, β-amyloid variant]
Average Pulse Width, tripeptide FXX (amino acid recognizers): 2.79 (FAK) seconds

LRLAFAYPDDDK [QP707]
RS R-X (PS621; RS duration): 17.3 min | PW of R-X (PS621): 0.47 s | Pulse Width (PS1223): 0.42 s | Median PD of recognition of N-terminal leucine by PS961 (PS961): 0.43 s

E22Q: β-amyloid variant, tripeptide FAQ (Amyloid-beta protein 42; UniProt P05067 691-693, looked up, fragment E22Q) [Peptide E22Q]
Average Pulse Width, tripeptide FXX (amino acid recognizers): 2.67 (FAQ) seconds

DQQRLIFAG [synthetic peptide corresponding to a segment of human ubiquitin]
Average NRS duration for the initial DQQ motif (PhTET2 and PhTET3): 153 min | Average cleavage time, N-terminal arginine (PhTET2 and PhTET3; [1]): 31 min | Average cleavage time, N-terminal isoleucine (PhTET2 and PhTET3; [1]): 39 min | Average cleavage time, N-terminal leucine (PhTET2 and PhTET3; [1]): 54 min | Average cleavage time, N-terminal phenylalanine (PhTET2 and PhTET3; [1]): 86 min

LVPFAE [Peptide F19P, β-amyloid variant]
Average Pulse Width, tripeptide LVX (amino acid recognizers): 1.86 seconds and 1.86 (LVP) seconds
